From patent publication US8324253B2, “Crystalline modification of 4-(N-methyl-Z-chloro-5pyridy methylamino)-2, 5-dihydrofuran-2-on” (Bayer Cropscience AG, priority 2006, dated 2012)

Columns and labels:
[1] = Solid-state properties of the crystalline modifications (stability, moisture uptake, grindability); assay type: physicochemical
[2] = tested on: Nilaparvata lugens; experiment: Nilaparvata lugens test (foliar application), outdoor trial rice, Philippines; assay type: in vivo
Experimental: Action of the crystalline modification I of the compound of the formula (I) against plant-damaging insects/outdoor trial rice, Philippines
Nilaparvata lugens Test (Foliar Application)
To produce a suitable preparation of active compound, the oil-based suspension concentrate prepared according to Example 2.3 (OD 100 formulation) was diluted with water to the desired concentration. After the desired period of time, the kill in % was determined 100% means that all leafhoppers have been killed; 0% means that none of the leafhoppers have been killed.

Compound: CN(Cc1ccc(Cl)nc1)C1=CC(=O)OC1 [crystalline modification I, 4-{[(6-chloropyrid-3-yl)methyl](methyl)amino}furan-2(5H)-one]
- thermodynamic stability of the crystalline modification [1]: thermodynamically stable
- grindability ([1]; compared to other crystalline modifications): easier to comminute/grind
- tendency to absorb atmospheric moisture ([1]; compared to the crystalline modification II): reduced tendency to absorb atmospheric moisture
- conversion into another crystalline modification on storage ([1]; prolonged storage): does not convert into another crystalline modification
- Kill rate in % after 14 days ([2]; Active compound concentration 200 g/ha, foliar application of OD 100 formulation of Example 2.3 diluted with water, rice, outdoor trial, 100% = all leafhoppers killed): 100%
- activity against Nilaparvata lugens (in words) ([2]; foliar application, outdoor trial rice): good activity

Compound: CN(Cc1ccc(Cl)nc1)C1=CC(=O)OC1 [crystalline modification II, 4-{[(6-chloropyrid-3-yl)methyl](methyl)amino}furan-2(5H)-one, reference compound]
- thermodynamic stability of the crystalline modification [1]: metastable
